From ChEMBL document CHEMBL4219088, “Novel 4-aminoquinazoline derivatives induce growth inhibition, cell cycle arrest and apoptosis via PI3Kα inhibition” (Bioorg Med Chem, 2018)

Legend:
Assay type in all cases: functional, cell-based
[1] = tested on: A549; test: Antiproliferative activity against human A549 cells after 72 hrs by sulforhodamine B assay; conditions: A549, 72 h
[2] = tested on: SK-HEP1; test: Antiproliferative activity against human SKHEP1 cells after 72 hrs by sulforhodamine B assay; conditions: SK-HEP1, 72 h
[3] = tested on: MCF7; test: Antiproliferative activity against human MCF7 cells after 72 hrs by sulforhodamine B assay; conditions: MCF7, 72 h
[4] = tested on: SNU-638; test: Antiproliferative activity against human SNU638 cells after 72 hrs by sulforhodamine B assay; conditions: SNU-638, 72 h
[5] = tested on: HCT-116; test: Antiproliferative activity against human HCT116 cells after 72 hrs by sulforhodamine B assay; conditions: HCT-116, 72 h
[6] = tested on: MDA-MB-231; test: Antiproliferative activity against human MDA-MB-231 cells after 72 hrs by sulforhodamine B assay; conditions: MDA-MB-231, 72 h

Structure (SMILES): COc1ncc(-c2ccc3ncnc(NCCN(C)C)c3c2)cc1NS(C)(=O)=O
- IC50 [1]: 4120 nM
- IC50 [2]: 12600 nM
- IC50 [3]: 14700 nM
- IC50 [4]: 410 nM
- IC50 [5]: 13500 nM
- IC50 [6]: 2320 nM

Structure (SMILES): COc1ncc(-c2ccc3ncnc(NCCN(C)C)c3c2)cc1NS(=O)(=O)c1ccc(F)cc1
- IC50 [1]: 2420 nM
- IC50 [2]: 9500 nM
- IC50 [3]: 1230 nM
- IC50 [4]: 1210 nM
- IC50 [5]: 3200 nM
- IC50 [6]: 1220 nM

Structure (SMILES): Cn1c(=O)n(-c2ccc(C(C)(C)C#N)cc2)c2c3cc(-c4cnc5ccccc5c4)ccc3ncc21 [DACTOLISIB]
- IC50 [6]: 180 nM
